Assay results as given in patent US11971383B1, “Enhanced 3D porous architectured electroactive devices via impregnated porogens” (Iowa State University Research Foundation, Inc., priority 2018, dated 2024).

Target: T1, Acetylcholinesterase (ACHE) (Electrophorus electricus, UniProt O42275)
T1 construct: purchased Sigma Aldrich
Assay: ACHE biosensor inhibition versus incubation time (decrease in amperometric oxidation current)
Format: biochemical
Conditions: 1 μM paraoxon, 5 mM ACTH, 400 mV
Description: Sodium chloride (NaCl) was purchased from Sigma-Aldrich, ground using mortar and pestle, and filtered into different sizes with 8 in wire cloth sieves. Acetylcholinesterase (ACHE) from Electrophorus electricus was purchased from Sigma Aldrich as lyophilized powder (200-1000 units per mg) and was used without any further purification. ACHE ink aliquots were made by dissolving the enzyme (2 mg) in 1 mL of 50% glycerol and 50% 1× phosphate-buffer solution (0.1 M PBS, pH 7.0), aliquoted into 25 μL, and stored in a −80° C. freezer until use. […]. All other chemicals and solvents were purchased from Sigma-Aldrich and were used without any other purification unless otherwise stated. Water was filtered through a B-Pure Water Purification system (resistivity, […]).
SIIML electrodes were functionalized with ACHE using 1-ethyl-3-(3-dimethylaminopropyl) carbodiimide and N-hydroxysuccinimide (EDC/NHS) chemistry, which facilitated the functionalization of carboxyl groups to the amines within the ACHE enzyme.^39 In summary, the CO2 laser annealed SIIML electrodes were dipped in a solution of EDC/NHS mixture (50 mM EDC, 50 mM NHS) and incubated for 30 min on a tilter mixer. The electrodes were then rinsed with 1×PBS, excess water was blown off but not completely dried as the surface remained still “wetted”, this allowed for easier pipetting onto the slightly hydrophobic graphene surface. […]

T1 sequence (O42275 24-633): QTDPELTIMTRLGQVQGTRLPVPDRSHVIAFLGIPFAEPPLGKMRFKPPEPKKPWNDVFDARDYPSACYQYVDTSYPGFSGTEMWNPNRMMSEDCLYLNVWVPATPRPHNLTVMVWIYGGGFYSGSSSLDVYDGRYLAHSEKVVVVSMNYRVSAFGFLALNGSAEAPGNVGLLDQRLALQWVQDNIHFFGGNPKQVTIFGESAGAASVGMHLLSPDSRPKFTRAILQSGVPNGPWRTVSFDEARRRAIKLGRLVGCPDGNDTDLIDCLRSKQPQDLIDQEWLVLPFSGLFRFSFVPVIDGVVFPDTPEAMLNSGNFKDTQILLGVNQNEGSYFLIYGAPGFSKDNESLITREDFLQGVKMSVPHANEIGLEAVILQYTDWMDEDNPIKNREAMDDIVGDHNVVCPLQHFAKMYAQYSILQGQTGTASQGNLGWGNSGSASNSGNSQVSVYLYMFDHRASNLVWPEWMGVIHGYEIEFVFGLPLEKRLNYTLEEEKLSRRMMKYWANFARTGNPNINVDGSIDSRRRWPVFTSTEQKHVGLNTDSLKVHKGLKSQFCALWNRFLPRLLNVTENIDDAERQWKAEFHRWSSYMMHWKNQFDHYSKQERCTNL

Structure (SMILES): CCOP(=O)(OCC)Oc1ccc([N+](=O)[O-])cc1 [paraoxon]
- inhibition of the sensor (percent of ACHE inhibited) (after 100 seconds incubation, large standard deviations): roughly 50%
- inhibition of the sensor (percent of ACHE inhibited) (after 500 seconds incubation, low standard deviation): about 90%
